Assay results from patent US6462069B2, “Compounds, pharmaceutical compositions, and methods for inhibiting protein kinases” (Agouron Pharmaceuticals, Inc., priority 2000, dated 2002).

Legend:
Assay type in all cases: biochemical
[1] = biological target: T1, VEGF-R2 (VEGF-R2Δ50 construct) (Homo sapiens, UniProt P35968, DEL940-989/E990V); assay: VEGF-R2 assay; conditions: read-out: Percent Inhibition VEGF
T1 construct: VEGF-R2Δ50 contains residues 806-939 and 990-1171; made in house; host or cells: baculovirus/insect cell system
T1 sequence (P35968 with tags, fused parts or gaps DEL940-989/E990V limits assumed): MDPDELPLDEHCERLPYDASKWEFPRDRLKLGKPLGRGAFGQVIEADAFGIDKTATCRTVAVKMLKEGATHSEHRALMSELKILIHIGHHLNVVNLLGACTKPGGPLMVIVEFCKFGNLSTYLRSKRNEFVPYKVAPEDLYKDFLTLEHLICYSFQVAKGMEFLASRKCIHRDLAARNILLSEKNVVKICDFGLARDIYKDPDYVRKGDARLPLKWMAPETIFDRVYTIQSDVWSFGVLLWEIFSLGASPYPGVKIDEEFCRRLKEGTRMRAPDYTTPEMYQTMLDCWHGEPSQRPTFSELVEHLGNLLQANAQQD
Source text: This construct determines the ability of a test compound to inhibit tyrosine kinase activity. A construct (VEGF-R2Δ50) of the cytosolic domain of human vascular endothelial growth factor receptor 2 (VEGF-R2) lacking the 50 central residues of the 68 residues of the kinase insert domain was expressed in a baculovirus/insect cell system. This construct is described by McTigue et al. in Structure, vol. 7, pp. 319-330 (1999) and co-pending U.S. patent application Ser. No. 09/390,326, filed Sep. 7, 1999. Of the 1356 residues of full-length VEGF-R2, VEGF-R2Δ50 contains residues 806-939 and 990-1171, and also one point mutation (E990V) within the kinase insert domain relative to wild-type VEGF-R2. […]
The production of ADP from ATP that accompanies phosphoryl transfer was coupled to oxidation of NADH using phosphoenolpyruvate (PEP) and a system having pyruvate kinase (PK) and lactic dehydrogenase (LDH). The oxidation of NADH was monitored by following the decrease of absorbance at 340 nm (e340=6.22 cm^−1 mM^−1) using a Beckman DU 650 spectrophotometer. […] Ki values were determined by measuring enzyme activity in the presence of varying concentrations of test compounds. The data were analyzed using Enzyme Kinetic and Kaleidagraph software.
Formation of phosphogastrin was monitored using biotinylated gastrin peptide (1-17) as substrate. […]

[2] = biological target: T2, CDK4/cyclin D3 complex (Homo sapiens, UniProt P11802); assay: Inhibition of CDK4/Cyclin D retinoblastoma kinase activity; conditions: apparent Ki
T2 construct: made in house; host or cells: insect cells co-infected with baculovirus expression vectors
T2 sequence (P11802 whole entry): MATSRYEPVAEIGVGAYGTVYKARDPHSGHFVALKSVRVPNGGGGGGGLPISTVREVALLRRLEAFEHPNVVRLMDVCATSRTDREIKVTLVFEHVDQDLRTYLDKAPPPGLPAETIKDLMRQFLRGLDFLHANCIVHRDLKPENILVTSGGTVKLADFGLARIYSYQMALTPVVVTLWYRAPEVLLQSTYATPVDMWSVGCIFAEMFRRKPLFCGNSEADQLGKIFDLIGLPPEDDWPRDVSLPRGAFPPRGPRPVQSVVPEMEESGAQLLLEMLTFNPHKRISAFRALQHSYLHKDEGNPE
T2 sequence (P30281 whole entry partner): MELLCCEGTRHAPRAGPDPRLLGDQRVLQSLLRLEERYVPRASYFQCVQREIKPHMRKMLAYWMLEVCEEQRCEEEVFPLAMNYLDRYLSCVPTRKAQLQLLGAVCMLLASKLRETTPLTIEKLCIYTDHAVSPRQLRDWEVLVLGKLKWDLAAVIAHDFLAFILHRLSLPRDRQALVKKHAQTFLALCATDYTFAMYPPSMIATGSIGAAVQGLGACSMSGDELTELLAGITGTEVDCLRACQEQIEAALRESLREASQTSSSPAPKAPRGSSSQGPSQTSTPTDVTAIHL
Protocol: (§1) Cyclin-dependent kinase activity was measured by quantifying the enzyme-catalyzed, time-dependent incorporation of radioactive phosphate from [^32P]ATP or [^33P]ATP into a protein substrate. Unless noted otherwise, assays were performed in 96-well plates in a total volume of 50 μL, in the presence of 10 mM HEPES (N-[2-hydroxyethyl]piperazine-N′-[2-ethanesulfonic acid]) (pH 7.4). 10 mM MgCI2, 25 μM adenosine triphosphate (ATP), 1 mg/mL ovalbumin, 5 μg/mL leupeptin, 1 mM dithiothreitol, 10 mM beta-glycerophosphate, 0.1 mM sodium vanadate, 1 mM sodium fluoride, 2.5 mM ethylene glycol-bis(β-aminoethyl ethKer)-N,N,N′N′-tetraacetic acid (EGTA), 2% (v/v) dimethylsulfoxide, and 0.03-0.4 μCi [^32/33P]ATP per reaction. Reactions were initiated with enzyme, incubated at 30° C. and terminated after 20 minutes by the addition ofethylenediaminetetraacetic acid (EDTA) to 250 mM. The phosphorylated substrate was then captured on a nitrocellulose or phosphocellulose membrane using a 96-well filtration manifold, and unincorporated radioactivity was removed by repeated washing with 0.85% phosphoric acid. Radioactivity was quantified by exposing the dried membranes to a phosphorimager.
(§2) Apparent Ki values were measured by assaying enzyme activity in the presence of different inhibitor compound concentrations and subtracting the background radioactivity measured in the absence of enzyme. Inhibition data were fit to an equation for competitive inhibition using Kaleidagraph (Synergy Software), or were fit to an equation for competitive tight-binding inhibition using the software KineTic (BioKin, Ltd.).
A complex of human CDK4 and cyclin D3, or a complex of human CDK4 and genetically truncated (1-264) cyclin D3, was purified using traditional biochemical chromatographic techniques from insect cells that had been co-infected with the corresponding baculovirus expression vectors ((see e.g., Meijer and Kim, “Chemical Inhibitors of Cyclin-Dependent Kinases,” Methods in Enzymol,. vol. 283, pp. 113-128 (1997)). The enzyme complex (5 or 50 nM) was assayed with 0.3-0.5 μg of purified recombinant retinoblastoma protein fragment (Rb) as a substrate. The engineered Rb fragment (residues 386-928 of the native retinoblastoma protein; 62.3 kDa) contains the majority of the phosphorylation sites found in the native 106-kDa protein, as well as a tag of six histidine residues for ease of purification. Phosphorylated Rb substrate was captured by microfiltration on a nitrocellulose membrane and quantified using a phosphorimager as described above. For measurement of tight-binding inhibitors, the enzyme complex concentration was lowered to 5 nM, and the assay duration was extended to 60 minutes, during which the time-dependence of product formation was linear.

[3] = biological target: T3, CDK2/cyclin A complex (Homo sapiens, UniProt P24941); assay: Inhibition of CDK2/Cyclin A retinoblastoma kinase activity; conditions: apparent Ki
T3 construct: made in house; host or cells: CDK2: insect cells (baculovirus); cyclin A: E. coli
Protocol: as §1, §2
CDK2 was purified using published methodology (Rosenblatt et al., “Purification and Crystallization of Human Cyclin-dependent Kinase 2,” J. Mol. Biol., vol. 230, pp. 1317-1319 (1993)) from insect cells that had been infected with a baculovirus expression vector. […] Ki values were measured as described above.

Row | inhibition at 5 µM [1] [%] | Ki [2] [µM] | Ki [3] [µM] | SMILES
1 | 10 | 26.2 | 25.8 | c1ccc(Nc2cc(-c3cccs3)[nH]n2)cc1 [Compound A, Phenyl-(5-thiophen-2-yl-1H-pyrazol-3-yl)-amine]
2 | 21 | 3.1 | 6.2 | c1ccc(Nc2cc(-c3csc4ccccc34)[nH]n2)cc1 [Compound B]
